Experimental data taken from US8193210B2, “Camptothecin derivatives with antitumor activity” (Indena S.p.A., priority 2006, dated 2012).
In brackets after ≈: the same amount, converted by molar mass. Read-outs that look alike come from different tables or passages of the source.

Key:
[1] = system: NCI-H460 cell line (NSCL cancer); experiment: Cell growth inhibition assay (cytotoxicity, cell count); type: cell-based, human; details: for NCl-H460 IC50 (μg/mL) Cell count: H460 cells; for IC50: Homo sapiens
Method: The compounds of the invention were tested in a cytotoxicity assay on a wide spectrum of tumour cells. By way of example, the cytotoxicity data on the NCI-H460 cell line (NSCL cancer) concerning two compounds of formula (I) are reported, using camptothecin and the drugs Topotecan and SN-38 as references:
H460 Cells from human large cell lung tumor were cultured in RPMI-1640 medium containing 10% foetal calf serum. Cell sensitivity was determined by cell growth inhibition assay after 1 or 72 hr drug exposure. The cells in logarithmic growth were collected and seeded in duplicate in 6-wells plates. […] IC50 is defined as the concentration inhibiting by 50% cell growth compared with untreated controls growth.

[2] = molecular target: T1, human recombinant enzyme (full length top1) (Homo sapiens, UniProt P11387); experiment: Topoisomerase-I-dependent DNA rupture assay, persistence of DNA damage; type: biochemical; details: 30 min incubation with 10 μM drug
T1 construct: the human recombinant enzyme (full length top1)
T1 sequence (P11387 1-765): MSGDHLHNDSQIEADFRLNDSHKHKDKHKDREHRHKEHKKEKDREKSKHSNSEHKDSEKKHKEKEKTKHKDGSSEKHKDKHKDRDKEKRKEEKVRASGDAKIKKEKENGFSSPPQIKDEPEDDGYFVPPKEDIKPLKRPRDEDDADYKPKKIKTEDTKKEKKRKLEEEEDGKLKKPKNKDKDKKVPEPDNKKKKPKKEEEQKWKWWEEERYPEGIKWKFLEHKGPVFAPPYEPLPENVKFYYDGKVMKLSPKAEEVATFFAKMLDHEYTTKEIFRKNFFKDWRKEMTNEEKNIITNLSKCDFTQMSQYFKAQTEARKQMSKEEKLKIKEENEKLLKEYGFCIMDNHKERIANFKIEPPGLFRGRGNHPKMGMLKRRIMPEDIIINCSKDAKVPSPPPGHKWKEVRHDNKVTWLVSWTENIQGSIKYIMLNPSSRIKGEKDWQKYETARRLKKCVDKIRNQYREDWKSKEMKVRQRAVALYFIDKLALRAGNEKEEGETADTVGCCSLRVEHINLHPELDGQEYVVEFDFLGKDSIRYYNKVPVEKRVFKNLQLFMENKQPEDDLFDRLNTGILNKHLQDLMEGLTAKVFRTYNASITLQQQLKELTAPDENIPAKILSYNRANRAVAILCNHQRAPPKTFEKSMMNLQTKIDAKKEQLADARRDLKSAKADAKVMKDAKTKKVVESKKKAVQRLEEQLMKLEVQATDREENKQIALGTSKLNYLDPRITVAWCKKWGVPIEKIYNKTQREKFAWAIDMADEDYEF

[3] = 1 or 72 hr drug exposure, counted with Coulter counter 72 hours after exposure
[4] = Time 0 min after adding 0.6 M NaCl
[5] = NCI-H460, H460 cells, 1 or 72 hr drug exposure, counted with Coulter counter 72 hours after exposure, read-out: NCl-H460 IC50 (μg/mL) Cell count
[6] = NCI-H460, read-out: NCl-H460 IC50 (μg/mL) Cell count, H460 cells, 1 or 72 hr drug exposure, counted with Coulter counter 72 hours after exposure

Compound: CC[C@@]1(O)C(=O)OCc2c1cc1n(c2=O)C(N=[N+]=[N-])c2cc3ccccc3nc2-1 (single isomer, unassigned) [5-N3-camptothecin Isomer 2, 5-N3-camptothecin 2nd diastereomer]
- NCl-H460 IC50 (μg/mL) Cell count [1, 3]: 2.59 ± 0.7 µg/mL

Compound: CC[C@@]1(O)C(=O)OCc2c1cc1n(c2=O)C(F)c2cc3ccccc3nc2-1 (single isomer, unassigned) [5-F-camptothecin Isomer 2, 5-F-camptothecin 2nd diastereomer]
- NCl-H460 IC50 (μg/mL) Cell count [1, 3]: 20 ± 5.1 µg/mL
- Persistence of DNA Damage (%) [2, 4]: 100%
- Persistence of DNA Damage (%) ([2]; Time 1 min after adding 0.6 M NaCl, listed as 5-F CPT isomers 2): 10%
- Persistence of DNA Damage (%) ([2]; Time 5 min after adding 0.6 M NaCl, listed as 5-F CPT isomers 2): 10%
- Persistence of DNA Damage (%) ([2]; Time 10 min after adding 0.6 M NaCl, listed as 5-F CPT isomers 2): 13%

Compound: CC[C@@]1(O)C(=O)OCc2c1cc1n(c2=O)C(N)c2cc3ccccc3nc2-1 (stereo partly shown) [5-NH2-camptothecin]
- IC50 [1, 5]: 11 ± 3.1 µg/mL (≈ 30.3 µM)

Compound: CC[C@@]1(O)C(=O)OCc2c1cc1n(c2=O)C(N(NC(=O)OC(C)(C)C)C(=O)OC(C)(C)C)c2cc3ccccc3nc2-1 (single isomer, unassigned) [5-di-tert-butoxycarbonyl-hydrazinocamptothecin Isomer 1, 5-di-t-butoxycarbonylhydrazino-camptothecin 1st diastereomer]
- IC50 [1, 5]: 50 µg/mL (≈ 86.4 µM)

Compound: CC[C@@]1(O)C(=O)OCc2c1cc1n(c2=O)C(F)c2cc3ccccc3nc2-1 (single isomer, unassigned) [5-F-camptothecin Isomer 1, 5-F-camptothecin 1st diastereomer]
- IC50 [1, 6]: 20.6 µg/mL (≈ 56.2 µM)
- Persistence of DNA Damage (%) [2, 4]: 100%
- Persistence of DNA Damage (%) ([2]; Time 1 min after adding 0.6 M NaCl, listed as 5-F CPT isomers 1): 18%
- Persistence of DNA Damage (%) ([2]; Time 5 min after adding 0.6 M NaCl, listed as 5-F CPT isomers 1): 18%
- Persistence of DNA Damage (%) ([2]; Time 10 min after adding 0.6 M NaCl, listed as 5-F CPT isomers 1): 10%

Compound: CC[C@@]1(O)C(=O)OCc2c1cc1n(c2=O)C(N(NC(=O)OC(C)(C)C)C(=O)OC(C)(C)C)c2cc3ccccc3nc2-1 (single isomer, unassigned) [5-di-tert-butoxycarbonyl-hydrazinocamptothecin Isomer 2, 5-di-t-butoxycarbonylhydrazino-camptothecin 2nd diastereomer]
- NCl-H460 IC50 (μg/mL) Cell count [1, 3]: > 100 µg/mL

Compound: CC[C@@]1(O)C(=O)OCc2c1cc1n(c2=O)C(N=[N+]=[N-])c2cc3ccccc3nc2-1 (single isomer, unassigned) [5-N3-camptothecin Isomer 1, 5-N3-camptothecin 1st diastereomer]
- IC50 [1, 6]: 4.18 µg/mL (≈ 10.7 µM)

Compound: CC[C@@]1(O)C(=O)OCc2c1cc1n(c2=O)C(N=[N+]=[N-])c2cc3ccccc3nc2-1 (single isomer, unassigned) [5-N3 CPT, 5-N3-camptothecin]
- Persistence of DNA Damage (%) [2, 4]: 100%
- Persistence of DNA Damage (%) ([2]; Time 1 min after adding 0.6 M NaCl): 50%
- Persistence of DNA Damage (%) ([2]; Time 5 min after adding 0.6 M NaCl): 30%
- Persistence of DNA Damage (%) ([2]; Time 10 min after adding 0.6 M NaCl): 15%
